Measurements: US20140154332A1, “FORMULAS COMPRISING HIGHLY SOLUBLE ELEMENTS AND VITAMIN FOR THE PREVENTION AND AMELIORATION OF OSTEOPOROSIS” (SINOVEDA CANADA, INC., priority 2011, published 2014)

What was measured:
[1] = humans; cited from earlier work
[2] = dual isotope techniques; cited from earlier work
[3] = 25 mg calcium load, 45Ca; cited from earlier work
[4] = Calcium, magnesium and zinc balance study in rats receiving calcium free diet (cumulative net percentage, body weight, plasma levels); conditions: for Cumulative net percentage of calcium / Cumulative net percentage of magnesium / Cumulative net percentage of zinc: n = 5 per group
Excerpt: (§1) Male Sprague-Dawley rats (about 6-7 weeks), with an initial weight between 220 g to 250 g, were randomly divided into different treatment groups. All the rats were housed in individual metabolic cages in a temperature-controlled room. Each rat received free access to the normal diet (Table 34) before the experiment. Both normal and calcium free diets (Table 34) were used in this set of studies. De-ionized water was provided ad libitum. All the rats were weighed before treatment.
(§2) Two sets of studies were performed: a normal diet and calcium free diet. In each study, there were seven treatment groups. […] Rats participating in the normal diet study received normal diet ad libitum throughout. Rats participating in the group of calcium free diet received the calcium free food ad libitum starting five days before and throughout treatment. In both study groups, animals received one dose a day for five days. Amounts of calcium, magnesium and zinc in individual formulation and in each diet were determined using ICP-OES. Values of dosage and dietary intake were measured for the calculation of elemental balance. […] Daily elemental dosages, similar to that of human's, are 53.14 mg/kg for calcium, 0.38 to 55 mg/kg/day for magnesium and 0.017 to 2.5 mg/kg/day for zinc. […] The vehicle for preparing each dose was de-ionized water. The concentration of calcium in all dosage preparations was 15.94 mg/mL. One mL of each preparation was administered by gavage. Body weight, elemental dosage and diet consumption were recorded daily.
(§3) Animals were housed individually in a metabolic cage five days before the study. Food consumption was evaluated daily. Urine and feces were collected daily for four days and the content of calcium, magnesium and zinc was determined. On Day 5, each animal received its treatment. These treatments were administered once a day for four days. After the last treatment, each animal was anesthetized shortly before peak elemental blood concentration was achieved. Blood was collected using a heparinized syringe via cardiac puncture. Immediately after blood collection, the animal was then sacrificed with an overdose of isoflourane. Each blood sample was centrifuged at 1900 rpm at room temperature; plasma was harvested and stored at −20° C. until analysis. Urine was measured daily; it was diluted with de-ionized water, filtered and an aliquot was stored at −20° C. until analysis. Daily fecal output was collected and lyophilized. Each sample was weighed and digested using a mixture of three volume of nitric acid and one volume of perchloric acid. For every gram of dried feces, 10 mL of acid mixture was added. Each sample was digested for three days. The volume of the digested sample was measured and an aliquot of the digest was stored at −20° C. until analysis. The content of calcium, magnesium and zinc in plasma, feces and urine were determined using ICP-OES.
(§4) Daily calcium balance was calculated using equation 1:
(§5) Ca Balance=total Ca intake(dose and dietary intake)−Ca excreted in urine−Ca excreted in feces (1)
(§6) While, percentage of Ca balance was determined using equation 2:
(§7) % Ca balance=Ca balance/(total Ca intake)×100% (2)
(§8) Cumulated calcium balance and % cumulated net calcium balance were calculated using equations (1) and (2), except, the sum of daily intake and excretion was used for calculation. The balance for magnesium and zinc was also calculated using the concept of equations (1) and (2). Cumulated elemental balance and % cumulated net elemental balance were calculated in a similar fashion as described above.
(§9) All results were analyzed using two-way ANOVA. […] The data are presented as mean±S.D. and mean±S.E.M. in tables and figures, respectively.

[5] = Calcium, magnesium and zinc balance study in rats receiving normal diet (cumulative net percentage, body weight, plasma levels); conditions: for Body weight of rats: normal calcium diet, n = 5; for Cumulative net percentage of calcium / Cumulative net percentage of zinc / Net accumulative percentage of magnesium: normal diet, n = 5 per group
Excerpt: as §1, §2, §3, §4, §5, §6, §7, §8, §9

[6] = rats; cited from earlier work

In the case of `O=C([O-])[O-].[Ca+2]` [calcium carbonate], the average amount absorbed [1] is given as 24%.
In the case of `[O]=[Zn]` [zinc oxide], the bioavailability of zinc [2] is listed as “approximately 24%”.
For Calcium Acetate [Ca ACE], the Bioavailability of calcium [3] is listed as 45%, the “Cumulative net percentage of calcium” value ([4]; Day 1, mean ± S.D.) is listed as −30.6 ± 51.3% and the “Cumulative net percentage of magnesium” value ([4]; Day 1, mean ± S.D.) is listed as −197.2 ± 105.2%. The “Cumulative net percentage of zinc” value ([4]; Day 1, mean ± S.D.) was −107.1 ± 85.5%, the “Body weight of rats” value ([4]; Day 1, n = 5) was 202.4 ± 9.3 g and the “Cumulative net percentage of calcium” value ([4]; Day 2, mean ± S.D.) was −9.88 ± 26.5%. The “Cumulative net percentage of magnesium” value ([4]; Day 2, mean ± S.D.) was −150.4 ± 88.9%, the “Cumulative net percentage of zinc” value ([4]; Day 2, mean ± S.D.) was −77.7 ± 59.0% and the “Body weight of rats” value ([4]; Day 2, n = 5) was 194.8 ± 9.3^$ g. For the same compound, the “Cumulative net percentage of calcium” value ([4]; Day 3, mean ± S.D.) was 4.88 ± 24.0%, the “Cumulative net percentage of magnesium” value ([4]; Day 3, mean ± S.D.) was −115.3 ± 62.7% and the “Cumulative net percentage of zinc” value ([4]; Day 3, mean ± S.D.) was −65.7 ± 66.7%. The “Body weight of rats” value ([4]; Day 3, n = 5) was 196.8 ± 10.9 g, the “Cumulative net percentage of calcium” value ([4]; Day 4, mean ± S.D.) was 11.1 ± 20.0% and the “Cumulative net percentage of magnesium” value ([4]; Day 4, mean ± S.D.) was −93.6 ± 37.2%. For the same compound, the “Cumulative net percentage of zinc” value ([4]; Day 4, mean ± S.D.) was −50.5 ± 46.4%, the “Body weight of rats” value ([4]; Day 4, n = 5) was 193.4 ± 11.9^$ g and the “Body weight of rats” value ([4]; Day 5, n = 5) was 188.0 ± 12.2^$ g. The magnesium balance ([4]; rats) was “net loss of magnesium”, the “Body weight of rats” value ([5]; Day 1, mean ± S.D.) was 242.0 ± 7.4 g and the “Body weight of rats” value ([5]; Day 2, mean ± S.D.) was 237.0 ± 12.5 g. For the same compound, the “Body weight of rats” value ([5]; Day 3, mean ± S.D.) was 239.2 ± 13.9 g, the “Body weight of rats” value ([5]; Day 4, mean ± S.D.) was 238.6 ± 13.9 g and the “Body weight of rats” value ([5]; Day 5, mean ± S.D.) was 244.0 ± 12.8 g. For the same compound, the “Cumulative net percentage of calcium” value ([5]; Day 1, mean ± S.D.) was 14.4 ± 24.0%, the “Cumulative net percentage of zinc” value ([5]; Day 1, mean ± S.D.) was 27.5 ± 16.0^% and the “Net accumulative percentage of magnesium” value ([5]; Day 1, mean ± S.D.) was 16.7 ± 17.2^%. The “Cumulative net percentage of calcium” value ([5]; Day 2, mean ± S.D.) was 26.9 ± 9.0%, the “Cumulative net percentage of zinc” value ([5]; Day 2, mean ± S.D.) was 40.9 ± 7.3% and the “Net accumulative percentage of magnesium” value ([5]; Day 2, mean ± S.D.) was 29.9 ± 3.8%. For the same compound, the “Cumulative net percentage of calcium” value ([5]; Day 3, mean ± S.D.) was 30.3 ± 4.9%, the “Cumulative net percentage of zinc” value ([5]; Day 3, mean ± S.D.) was 45.6 ± 5.9% and the “Net accumulative percentage of magnesium” value ([5]; Day 3, mean ± S.D.) was 34.3 ± 2.5%. The “Cumulative net percentage of calcium” value ([5]; Day 4, mean ± S.D.) was 31.9 ± 3.0%, the “Cumulative net percentage of zinc” value ([5]; Day 4, mean ± S.D.) was 48.4 ± 4.4% and the “Net accumulative percentage of magnesium” value ([5]; Day 4, mean ± S.D.) was 37.7 ± 2.7%.
In the case of Magnesium gluconate, the bioavailability of magnesium [6] is given as “highest value”.
For calcium ascorbate, the Bioavailability of calcium [3] is listed as 70%.
